Laboratory results taken from patent US20050164993A1, “Methods of treating allergic reactions” (priority 2002, published 2005).
Read-outs that look alike come from different tables or passages of the source.

How the values were obtained:
[1] = tested on: BALB/c 3T3 (CCL-163) cells; assay: 3T3 Neutral Red uptake phototoxicity assay (with/without UVA)
Experimental: Streptomycin sulfate ([…]) and penicillin (100 IU/ml) were added to the medium after the cells were treated with test article in 96-well plates.
Serial dilutions of the tetracycline derivatives were prepared in DMSO at concentrations 100× to final testing concentration. The COL dilutions in DMSO were then diluted in Hanks' Balanced Salt Solution (HBSS) for application to the cells. The final DMSO concentration was 1% in treated and control cultures. A dose range finding assay is conducted with eight serial dilutions covering a range of 100-0.03 μg/ml in half log steps. Definitive assays are conducted with 6-8 serial dilutions prepared in quarter log steps, centered on the expected 50% toxicity point as determined in the dose range finding assay. One hundred 100 μg/ml was the highest dose recommended to prevent false negative results from UV absorption by the dosing solutions. One dose range finding and at least two definitive trials were performed on each tetracycline derivative and control compound.
Controls: Each assay included both negative (solvent) and positive controls. Twelve wells of negative control cultures were used on each 96-well plate. Chlorpromazine (Sigma Chemicals) was used as the positive control and was prepared and dosed like the test tetracycline derivatives.
Solar Simulator: A Dermalight SOL 3 solar simulator, equipped with a UVA H1 filter (320-400 nm), was adjusted to the appropriate height. Measurement of energy through the lid of a 96-well microtiter plate was carried out using a calibrated UV radiometer UVA sensor. Simulator height was adjusted to deliver 1.7±0.1 mW/cm^2 of UVA energy (resulting dose was 1 J/cm^2 per 10 minutes of exposure).
Phototoxicity Assay: Duplicate plates were prepared for each test material by seeding 10^4 3T3 cells per well in complete medium 24 hours before treatment. Prior to treatment, the medium was removed, and the cells washed once with 125 μl of prewarmed HBSS. Fifty μl of prewarmed HBSS were added to each well. Fifty μl of each test article dilution were added to the appropriate wells and the plates returned to the incubator for approximately one hour. Six wells were treated with each dose of test or control article on each plate. Following the 1 hr incubation, the plates designated for the photo irradiation were exposed (with the lid on) to 1.7±0.1 mW/cm^2 UVA light for 50±2 minutes at room temperature resulting in an irradiation dose of 5 J/cm^2. Duplicate plates, designated for the measurement of cytotoxicity without light, were kept in the dark room temperature for 50±2 minutes. After the 50 minute exposure period (with or without light) the test article dilutions were decanted from the plates and the cells washed once with 125 μl of HBSS. One hundred μl of medium were added to all wells and the cells incubated as above for 24±1 hours.
After 24 hours of incubation, the medium was decanted and 100 μl of the Neutral Red containing medium were added to each well. The plates were returned to the incubator and incubated for approximately 3 hours. After 3 hours, the medium was decanted and each well rinsed once with 250 μl of HBSS. The plates were blotted to remove the HBSS and 100 μl of Neutral Red Solvent were added to each well. After a minimum of 20 minutes of incubation at room temperature (with shaking), the absorbance at 550 nm was measured with a plate reader, using the mean of the blank outer wells as the reference. Relative survival was obtained by comparing the amount of neutral red taken by each well treated with the test article and positive control to the neutral red taken up by the average of the negative wells (12 wells) on the same plate. The amount of neutral red taken up by the negative control wells is considered to be 100% survival.

[2] = based on steady-state pharmacokinetics; cited from earlier work

SMILES | PIF 1 (photoirritancy factor, earlier software) [1] | PIF 2 (photoirritancy factor, OECD Draft Guideline 432) [1] | other results
O=C(NCN1CCCCC1)C1=C(O)CC2CC3Cc4cccc(O)c4C(=O)C3=C(O)C2(O)C1=O (stereo not drawn) [COL 313, 2-CONHCH2-piperidin-1-yl-6-demethyl-6-deoxy-4-dedimethylaminotetracycline] | 80.27 | 58.22 | 
CN(C)[C@@H]1C(=O)C(C(N)=O)=C(O)[C@@]2(O)C(=O)C3=C(O)c4c(O)cccc4[C@@](C)(O)[C@H]3C[C@@H]12 [Tetracycline, reference compound] |  |  | MPE (mean photo effect) ([1]; 3T3 cells, 5 J/cm^2 UVA vs dark, <0.1 nonphototoxin, 0.1 to <0.15 probable, >=0.15 clear phototoxin): 0.340; PIF 1 (photoirritancy factor, earlier software) ([1]; IC50(-UVA)/IC50(+UVA), 3T3 cells, >5 indicative of phototoxic potential): 5.38; plasma antibiotic threshold level [2]: 0.5 µg/mL
CCCCCCCCCCCCCCCC(=O)Nc1ccc2c(c1O)C(=O)C1=C(O)C3(O)C(=O)C(C(N)=O)=C(O)CC3CC1C2 (stereo not drawn) [COL 311, 9-palmitamide-6-demethyl-6-deoxy-4-dedimethylaminotetracycline] | 1.0 |  | 
CC1c2ccc(N)c(O)c2C(=O)C2=C(O)C3(O)C(=O)C(C(N)=O)=C(O)CC3C(O)C21 (stereo not drawn) [COL 805, 9-amino-4-dedimethylaminodoxycycline] | 1.0 |  | 
NC(=O)C1=C(O)CC2CC3Cc4c(N)ccc(O)c4C(=O)C3=C(O)C2(O)C1=O (stereo not drawn) [COL 307, 7-amino-6-demethyl-6-deoxy-4-dedimethylaminotetracycline] | 1.17 |  | 
CC(=O)Nc1ccc2c(c1O)C(=O)C1=C(O)C3(O)C(=O)C(C(N)=O)=C(O)CC3C(O)C1C2C (stereo not drawn) [COL 801, 9-acetamido-4-dedimethylaminodoxycycline] | 1.0 |  | 
O=C(NCN1CCOCC1)C1=C(O)CC2CC3Cc4cccc(O)c4C(=O)C3=C(O)C2(O)C1=O (stereo not drawn) [COL 314, 2-CONHCH2-morpholin-1-yl-6-demethyl-6-deoxy-4-dedimethylaminotetracycline] | 41.1 | 89.48 | 
CN(C)c1ccc2c(c1O)C(=O)C1=C(O)C3(O)C(=O)C(C(N)=O)=C(O)CC3CC1C2 (stereo not drawn) [COL 306, 9-dimethylamino-6-demethyl-6-deoxy-4-dedimethylaminotetracycline] | 1.64 | 1.56 | 
CN(C)CCCN1c2ccccc2Sc2ccc(Cl)cc21 [Chlorpromazine, reference compound] |  |  | PIF 2 (photoirritancy factor, OECD Draft Guideline 432) ([1]; mouse): 40.38
CN(C)c1ccc(O)c2c1CC1CC3CC(O)=C(C(N)=O)C(=O)C3(O)C(O)=C1C2=O (stereo not drawn) [COL 10, 4-dedimethylaminominocycline] |  | 2.04 | 
CC1c2cccc(O)c2C(=O)C2=C(O)C3(O)C(=O)C(C(N)=O)=C(O)CC3C(O)C21 (stereo not drawn) [COL 8, 4-dedimethylaminodoxycycline] | 165 | 82.61 | 
CN(C)c1ccc(O)c2c1C[C@H]1C[C@H]3[C@H](N(C)C)C(O)=C(C(N)=O)C(=O)[C@@]3(O)C(O)=C1C2=O [Minocycline, 7-dimethylaminotetracycline] |  |  | plasma antibiotic threshold level [2]: 0.8 µg/mL
O=C(NCN1CCNCC1)C1=C(O)CC2CC3Cc4cccc(O)c4C(=O)C3=C(O)C2(O)C1=O (stereo not drawn) [COL 315, 2-CONHCH2-piperazin-1-yl-6-demethyl-6-deoxy-4-dedimethylaminotetracycline] | 15.8 | 35.30 | 
NC(=O)C1=C(O)CC2CC3Cc4ccc([N+](=O)[O-])c(O)c4C(=O)C3=C(O)C2(O)C1=O (stereo not drawn) [COL 303, 9-nitro-6-demethyl-6-deoxy-4-dedimethylaminotetracycline] | 5.27 | 13.82 | 
CN(C)c1cc([N+](=O)[O-])c(O)c2c1CC1CC3CC(O)=C(C(N)=O)C(=O)C3(O)C(O)=C1C2=O (stereo not drawn) [COL 1002, 9-nitro-4-dedimethylaminominocycline] |  | 1.35 | 
C[C@H]1c2cccc(O)c2C(=O)C2=C(O)[C@]3(O)C(=O)C(C(N)=O)=C(O)[C@@H](N(C)C)[C@@H]3[C@@H](O)[C@@H]21 [Doxycycline, 6α-deoxy-5-hydroxytetracycline, reference compound] |  |  | PIF 1 (photoirritancy factor, earlier software) ([1]; mouse): 23.37; PIF 2 (photoirritancy factor, OECD Draft Guideline 432) ([1]; mouse): 26.71; plasma antibiotic threshold level [2]: 1.0 µg/mL
NC(=O)C1=C(O)CC2CC3Cc4c([N+](=O)[O-])ccc(O)c4C(=O)C3=C(O)C2(O)C1=O (stereo not drawn) [COL 302, 7-nitro-6-demethyl-6-deoxy-4-dedimethylaminotetracycline] | 23.16 | 23.32 | 
O=C(NCN1CCCC1)C1=C(O)CC2CC3Cc4cccc(O)c4C(=O)C3=C(O)C2(O)C1=O (stereo not drawn) [COL 312, 2-CONHCH2-pyrrolidin-1-yl-6-demethyl-6-deoxy-4-dedimethylaminotetracycline] | 62.67 | 75.11 | 
CC1c2cccc(O)c2C(=O)C2=C(O)C3(O)C(=O)C(C(=O)NCN4CCCCC4)=C(O)CC3C(O)C21 (stereo not drawn) [COL 808, 2-CONHCH2-piperidin-1-yl-4-dedimethylaminodoxycycline] | 46.45 |  | 
CC1c2ccc(NC(=O)CN(C)C)c(O)c2C(=O)C2=C(O)C3(O)C(=O)C(C(N)=O)=C(O)CC3C(O)C21 (stereo not drawn) [COL 802, 9-dimethylaminoacetamido-4-dedimethylaminodoxycycline] | 1.0 |  | 
NC(=O)C1=C(O)CC2CC3Cc4ccc(N)c(O)c4C(=O)C3=C(O)C2(O)C1=O (stereo not drawn) [COL 308, 9-amino-6-demethyl-6-deoxy-4-dedimethylaminotetracycline] | 1.0 |  | 
CN(C)CC(=O)Nc1ccc2c(c1O)C(=O)C1=C(O)C3(O)C(=O)C(C(N)=O)=C(O)CC3CC1C2 (stereo not drawn) [COL 309, 9-dimethylaminoacetamido-6-demethyl-6-deoxy-4-dedimethylaminotetracycline] | 5.17 | 12.87 | 
CC1c2cccc(O)c2C(=O)C2=C(O)C3(O)C(=O)C(C(=O)NCN4CCCC4)=C(O)CC3C(O)C21 (stereo not drawn) [COL 807, 2-CONHCH2-pyrrolidin-1-yl-4-dedimethylaminodoxycycline] | 40.4 |  | 
NC(=O)C1=C(O)C[C@@H]2C[C@@H]3Cc4cccc(O)c4C(=O)C3=C(O)[C@]2(O)C1=O [COL 3, 6-demethyl-6-deoxy-4-dedimethylaminotetracycline] | 647 | 84.72 | 
CC1c2ccc([N+](=O)[O-])c(O)c2C(=O)C2=C(O)C3(O)C(=O)C(C(N)=O)=C(O)CC3C(O)C21 (stereo not drawn) [COL 804, 9-nitro-4-dedimethylaminodoxycycline] | 1.0 |  | 
